Reference: US20230257372A1 (CHONG KUN DANG PHARMACEUTICAL CORP., priority 2020, published 2023)

Legend:
human recombinant HDAC1 = target: T1, human recombinant HDAC1 (Homo sapiens, UniProt Q13547); assay: HDAC1 enzyme activity inhibition (HDAC Fluorimetric Drug Discovery Kit); assay type: biochemical; conditions: human recombinant HDAC1; IC50 calculated with GraphPad Prism; read-out: HDAC1
T1 construct: purchased Enzo Life Science, Inc. BML-SE456
Outline: (§1)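 Fluorimetric deacetylase read-out. 5-fold compound dilutions; […] enzyme, 10 μM substrate; 30° C, 60 min; developer 30 min.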

human recombinant HDAC6 = target: T2, human recombinant HDAC6 (Homo sapiens, UniProt Q9UBN7); assay: HDAC6 enzyme activity inhibition (HDAC Fluorimetric Drug Discovery Kit); assay type: biochemical; conditions: for HDAC6 selectivity (fold): HDAC1 IC50 / HDAC6 IC50; for IC50: human recombinant HDAC6, IC50 calculated with GraphPad Prism
T2 construct: purchased Calbiochem Inc. 382180
T2 sequence (Q9UBN7 1-1215): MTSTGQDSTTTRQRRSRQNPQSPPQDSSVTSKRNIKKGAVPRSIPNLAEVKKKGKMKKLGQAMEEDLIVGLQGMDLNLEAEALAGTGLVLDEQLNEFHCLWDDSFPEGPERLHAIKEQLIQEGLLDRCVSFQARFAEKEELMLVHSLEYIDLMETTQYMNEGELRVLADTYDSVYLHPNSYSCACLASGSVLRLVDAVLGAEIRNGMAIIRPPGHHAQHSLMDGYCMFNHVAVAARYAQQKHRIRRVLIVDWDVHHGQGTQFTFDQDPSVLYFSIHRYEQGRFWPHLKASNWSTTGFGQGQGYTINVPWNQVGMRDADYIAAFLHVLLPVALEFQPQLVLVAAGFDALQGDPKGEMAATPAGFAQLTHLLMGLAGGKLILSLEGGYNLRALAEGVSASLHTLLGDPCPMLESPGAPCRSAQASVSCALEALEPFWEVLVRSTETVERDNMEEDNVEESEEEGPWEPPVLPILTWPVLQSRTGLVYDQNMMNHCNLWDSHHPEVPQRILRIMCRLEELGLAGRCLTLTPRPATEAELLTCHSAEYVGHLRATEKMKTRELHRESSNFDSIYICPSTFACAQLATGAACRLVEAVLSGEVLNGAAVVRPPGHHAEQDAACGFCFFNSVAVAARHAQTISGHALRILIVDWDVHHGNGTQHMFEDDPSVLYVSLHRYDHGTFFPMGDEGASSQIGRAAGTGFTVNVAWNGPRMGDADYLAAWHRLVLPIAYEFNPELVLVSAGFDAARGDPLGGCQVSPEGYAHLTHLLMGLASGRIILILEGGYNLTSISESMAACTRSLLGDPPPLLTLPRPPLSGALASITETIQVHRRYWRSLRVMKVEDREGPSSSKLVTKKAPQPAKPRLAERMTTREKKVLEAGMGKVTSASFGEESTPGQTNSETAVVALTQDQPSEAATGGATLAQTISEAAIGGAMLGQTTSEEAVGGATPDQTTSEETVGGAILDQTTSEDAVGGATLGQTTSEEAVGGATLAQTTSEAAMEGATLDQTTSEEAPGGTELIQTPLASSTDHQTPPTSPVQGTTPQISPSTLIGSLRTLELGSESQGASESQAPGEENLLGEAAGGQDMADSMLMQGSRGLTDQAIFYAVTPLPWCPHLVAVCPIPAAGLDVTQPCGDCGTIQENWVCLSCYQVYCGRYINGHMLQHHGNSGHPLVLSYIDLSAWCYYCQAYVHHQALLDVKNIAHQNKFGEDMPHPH
Outline: as §1

T1 sequence (Q13547 whole entry): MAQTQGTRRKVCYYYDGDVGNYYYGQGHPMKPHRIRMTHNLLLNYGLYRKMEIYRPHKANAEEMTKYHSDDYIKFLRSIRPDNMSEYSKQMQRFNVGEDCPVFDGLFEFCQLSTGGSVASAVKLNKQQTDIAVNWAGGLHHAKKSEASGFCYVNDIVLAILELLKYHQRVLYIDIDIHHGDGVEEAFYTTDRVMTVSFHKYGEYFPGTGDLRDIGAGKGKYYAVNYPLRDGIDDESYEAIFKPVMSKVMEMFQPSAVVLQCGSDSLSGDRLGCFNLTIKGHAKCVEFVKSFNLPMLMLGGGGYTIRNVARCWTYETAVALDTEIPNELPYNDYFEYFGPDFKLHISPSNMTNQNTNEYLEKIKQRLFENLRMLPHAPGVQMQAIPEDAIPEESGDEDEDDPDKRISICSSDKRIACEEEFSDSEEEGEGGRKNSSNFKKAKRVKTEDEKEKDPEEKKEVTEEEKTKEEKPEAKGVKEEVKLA

SMILES | IC50 (human recombinant HDAC1) [µM] | HDAC6 selectivity (fold) (human recombinant HDAC6) | IC50 (human recombinant HDAC6) [nM]
FC(F)c1nnc(-c2ccc(Cn3cc(-c4cccc(CN5CCC5)c4)nn3)cc2)o1 [Compound 4409, 2-(4-((4-(3-(azetidin-1-ylmethyl)phenyl)-1H-1,2,3-triazol-1-yl)methyl)phenyl)-5-(difluoromethyl)-1,3,4-oxadiazole] | > 50 | 96 | 519
FC1CN(Cc2cccc(-c3cn(Cc4ccc(-c5nnc(C(F)F)o5)cc4)nn3)c2)C1 [Compound 4410, 2-(difluoromethyl)-5-(4-((4-(3-((3-fluoroazetidin-1-yl)methyl)phenyl)-1H-1,2,3-triazol-1-yl)methyl)phenyl)-1,3,4-oxadiazole] | > 50 | 781 | 64
FC(F)c1nnc(-c2ccc(Cn3cc(-c4cccc(CN5CCOCC5)c4)nn3)cc2)o1 [Compound 4411, 4-(3-(1-(4-(5-(difluoromethyl)-1,3,4-oxadiazol-2-yl)benzyl)-1H-1,2,3-triazol-4-yl)benzyl)morpholine] | > 50 | 662 | 75.5
O=S1(=O)CCN(Cc2cccc(-c3cn(Cc4ccc(-c5nnc(C(F)F)o5)cc4)nn3)c2)CC1 [Compound 4412, 4-(3-(1-(4-(5-(difluoromethyl)-1,3,4-oxadiazol-2-yl)benzyl)-1H-1,2,3-triazol-4-yl)benzyl)thiomorpholine 1,1-dioxide] | > 50 | 432 | 116
FC(F)c1nnc(-c2ccc(Cn3cc(-c4cccc(CN5CCC(F)(F)CC5)c4)nn3)cc2)o1 [Compound 4413, 2-(difluoromethyl)-5-(4-((4-(3-((4,4-difluoropiperidin-1-yl)methyl)phenyl)-1H-1,2,3-triazol-1-yl)methyl)phenyl)-1,3,4-oxadiazole] | > 50 | 348 | 144
CN1CCN(Cc2cccc(-c3cn(Cc4ccc(-c5nnc(C(F)F)o5)cc4)nn3)c2)CC1 [Compound 4414] | > 50 | 627 | 79.7
CCN1CCN(Cc2cccc(-c3cn(Cc4ccc(-c5nnc(C(F)F)o5)cc4)nn3)c2)CC1 [Compound 4415, 2-(difluoromethyl)-5-(4-((4-(3-((4-ethylpiperazin-1-yl)methyl)phenyl)-1H-1,2,3-triazol-1-yl)methyl)phenyl)-1,3,4-oxadiazole] | > 50 | 545 | 91.7
CC(C)N1CCN(Cc2cccc(-c3cn(Cc4ccc(-c5nnc(C(F)F)o5)cc4)nn3)c2)CC1 [Compound 4416, 2-(difluoromethyl)-5-(4-((4-(3-((4-isopropylpiperazin-1-yl)methyl)phenyl)-1H-1,2,3-triazol-1-yl)methyl)phenyl)-1,3,4-oxadiazole] | > 50 | 427 | 112
FC(F)c1nnc(-c2ccc(Cn3cc(-c4cccc(CN5CC(F)(F)C5)c4)nn3)cc2)o1 [Compound 4417, 2-(4-((4-(3-((3,3-difluoroazetidin-1-yl)methyl)phenyl)-1H-1,2,3-triazol-1-yl)methyl)phenyl)-5-(difluoromethyl)-1,3,4-oxadiazole] | > 50 | 487 | 102
Fc1cc(-c2nnc(C(F)F)o2)ccc1Cn1cc(-c2cccc(CN3CC(F)(F)C3)c2)nn1 [Compound 4418, 2-(4-((4-(3-((3,3-difluoroazetidin-1-yl)methyl)phenyl)-1H-1,2,3-triazol-1-yl)methyl)-3-fluorophenyl)-5-(difluoromethyl)-1,3,4-oxadiazole] | > 50 | 837 | 59.7
CN1CCN(c2cc(-c3cn(Cc4ccc(-c5nnc(C(F)F)o5)cc4)nn3)ccc2F)CC1 [Compound 4419, 2-(difluoromethyl)-5-(4-((4-(4-fluoro-3-(4-methylpiperazin-1-yl)phenyl)-1H-1,2,3-triazol-1-yl)methyl)phenyl)-1,3,4-oxadiazole] | > 50 | 315 | 159
CCN1CCN(c2cc(-c3cn(Cc4ccc(-c5nnc(C(F)F)o5)cc4)nn3)ccc2F)CC1 [Compound 4420, 2-(difluoromethyl)-5-(4-((4-(3-(4-ethylpiperazin-1-yl)-4-fluorophenyl)-1H-1,2,3-triazol-1-yl)methyl)phenyl)-1,3,4-oxadiazole] | > 50 | 287 | 174
CC(C)N1CCN(c2cc(-c3cn(Cc4ccc(-c5nnc(C(F)F)o5)cc4)nn3)ccc2F)CC1 [Compound 4421, 2-(difluoromethyl)-5-(4-((4-(4-fluoro-3-(4-isopropylpiperazin-1-yl)phenyl)-1H-1,2,3-triazol-1-yl)methyl)phenyl)-1,3,4-oxadiazole] | > 50 | 202 | 247
Fc1ccc(-c2cn(Cc3ccc(-c4nnc(C(F)F)o4)cc3)nn2)cc1N1CCN(C2CCC2)CC1 [Compound 4422, 2-(4-((4-(3-(4-cyclobutylpiperazin-1-yl)-4-fluorophenyl)-1H-1,2,3-triazol-1-yl)methyl)phenyl)-5-(difluoromethyl)-1,3,4-oxadiazol] | > 50 | 127 | 392

Results, then the molecule that gave them:

IC50 (human recombinant HDAC1) [µM] | HDAC6 selectivity (fold) (human recombinant HDAC6) | IC50 (human recombinant HDAC6) [nM] | SMILES
> 50 | 677 | 73.8 | Fc1cc(-c2nnc(C(F)F)o2)ccc1Cn1cc(-c2cccc(CN3CCC3)c2)nn1 [Compound 4402, 2-(4-((4-(3-(azetidin-1-ylmethyl)phenyl)-1H-1,2,3-triazol-1-yl)methyl)-3-fluorophenyl)-5-(difluoromethyl)-1,3,4-oxadiazole]
> 50 | 1213 | 41.2 | Fc1cc(-c2nnc(C(F)F)o2)ccc1Cn1cc(-c2cccc(CN3CC(F)C3)c2)nn1 [Compound 4403, 2-(difluoromethyl)-5-(3-fluoro-4-((4-(3-((3-fluoroazetidin-1-yl)methyl)phenyl)-1H-1,2,3-triazol-1-yl)methyl)phenyl)-1,3,4-oxadiazole]
> 50 | 837 | 59.7 | Fc1cc(-c2nnc(C(F)F)o2)ccc1Cn1cc(-c2cccc(CN3CCOCC3)c2)nn1 [Compound 4404, 4-(3-(1-(4-(5-(difluoromethyl)-1,3,4-oxadiazol-2-yl)-2-fluorobenzyl)-1H-1,2,3-triazol-4-yl)benzyl)morpholine]
> 50 | 794 | 62.9 | Fc1cc(-c2nnc(C(F)F)o2)ccc1Cn1cc(-c2cccc(CN3CCC(F)(F)CC3)c2)nn1 [Compound 4405, 2-(difluoromethyl)-5-(4-((4-(3-((4,4-difluoropiperidin-1-yl)methyl)phenyl)-1H-1,2,3-triazol-1-yl)methyl)-3-fluorophenyl)-1,3,4-oxadiazole]
> 50 | 892 | 56 | CN1CCN(Cc2cccc(-c3cn(Cc4ccc(-c5nnc(C(F)F)o5)cc4F)nn3)c2)CC1 [Compound 4406, 2-(difluoromethyl)-5-(3-fluoro-4-((4-(3-((4-methylpiperazin-1-yl)methyl)phenyl)-1H-1,2,3-triazol-1-yl)methyl)phenyl)-1,3,4-oxadiazole]
> 50 | 1259 | 39.7 | CCN1CCN(Cc2cccc(-c3cn(Cc4ccc(-c5nnc(C(F)F)o5)cc4F)nn3)c2)CC1 [Compound 4407, 2-(difluoromethyl)-5-(4-((4-(3-((4-ethylpiperazin-1-yl)methyl)phenyl)-1H-1,2,3-triazol-1-yl)methyl)-3-fluorophenyl)-1,3,4-oxadiazole]
> 50 | 970 | 51.5 | CC(C)N1CCN(Cc2cccc(-c3cn(Cc4ccc(-c5nnc(C(F)F)o5)cc4F)nn3)c2)CC1 [Compound 4408]
